Measurements as given in patent publication US20230265151A1, “GIP/GLP1 CO-AGONIST COMPOUNDS” (priority 2020, published 2023).
Read-outs that look alike come from different tables or passages of the source.

Tests used:
Format in all cases: cell-based
[1] = target: hGLP-1R (Homo sapiens, UniProt P43220); experiment: Functional cAMP formation (HTRF) in HEK-293 clonal cells expressing hGLP-1R, 0.1% bovine casein, without or with 1.0% human serum albumin; set-up: expressed in transfected cells; details: for Emax: percent of maximal response to GLP-1(7-36)NH2; for EC50: geometric mean
hGLP-1R, sequence (P43220 24-463): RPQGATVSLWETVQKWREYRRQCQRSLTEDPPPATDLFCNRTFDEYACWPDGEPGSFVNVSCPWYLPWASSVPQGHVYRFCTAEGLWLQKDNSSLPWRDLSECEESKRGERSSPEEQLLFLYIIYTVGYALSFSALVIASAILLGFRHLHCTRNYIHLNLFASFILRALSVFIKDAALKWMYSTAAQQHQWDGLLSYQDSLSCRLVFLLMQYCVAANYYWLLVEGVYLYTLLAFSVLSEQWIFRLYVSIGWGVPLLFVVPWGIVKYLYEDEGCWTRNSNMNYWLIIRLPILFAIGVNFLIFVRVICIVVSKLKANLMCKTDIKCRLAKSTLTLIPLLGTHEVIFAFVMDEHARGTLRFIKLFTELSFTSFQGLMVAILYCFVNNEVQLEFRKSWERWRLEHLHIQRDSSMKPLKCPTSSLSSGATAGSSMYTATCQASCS
Procedure, shortened: (§1)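 Readings of the HTRF 665/620 nm ratio, which falls as cAMP rises, were converted to nM cAMP using a standard curve after 30 min peptide exposure at 37° C.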

[2] = target: T1, hGCGR (Homo sapiens, UniProt P47871); experiment: Functional cAMP formation (HTRF) in HEK-293 clonal cells expressing hGCGR, 0.1% bovine casein, without or with 1.0% human serum albumin
T1 construct: expressed in transfected cells
T1 sequence (P47871 26-477): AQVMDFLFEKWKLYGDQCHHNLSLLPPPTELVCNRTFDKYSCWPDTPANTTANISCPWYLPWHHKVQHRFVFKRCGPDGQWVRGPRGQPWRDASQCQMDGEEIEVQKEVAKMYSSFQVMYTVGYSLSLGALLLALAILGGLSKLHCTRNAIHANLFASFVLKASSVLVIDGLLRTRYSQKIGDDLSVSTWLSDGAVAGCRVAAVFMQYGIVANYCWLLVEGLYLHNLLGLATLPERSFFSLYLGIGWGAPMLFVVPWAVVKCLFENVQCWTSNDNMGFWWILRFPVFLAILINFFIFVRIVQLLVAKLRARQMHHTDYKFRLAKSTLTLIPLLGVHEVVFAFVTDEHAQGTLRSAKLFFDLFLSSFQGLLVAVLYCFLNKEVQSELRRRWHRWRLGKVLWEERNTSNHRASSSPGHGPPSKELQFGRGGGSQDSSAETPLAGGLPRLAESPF
Procedure, shortened: as §1

[3] = target: T2, hGIPR (Homo sapiens, UniProt P48546); experiment: Functional cAMP formation (HTRF) in HEK-293 clonal cells expressing hGIPR, 0.1% bovine casein, without or with 1.0% human serum albumin; details: for Emax: percent of maximal response to GIP(1-42)NH2; for EC50: geometric mean
T2 construct: expressed in transfected cells
T2 sequence (P48546 22-466): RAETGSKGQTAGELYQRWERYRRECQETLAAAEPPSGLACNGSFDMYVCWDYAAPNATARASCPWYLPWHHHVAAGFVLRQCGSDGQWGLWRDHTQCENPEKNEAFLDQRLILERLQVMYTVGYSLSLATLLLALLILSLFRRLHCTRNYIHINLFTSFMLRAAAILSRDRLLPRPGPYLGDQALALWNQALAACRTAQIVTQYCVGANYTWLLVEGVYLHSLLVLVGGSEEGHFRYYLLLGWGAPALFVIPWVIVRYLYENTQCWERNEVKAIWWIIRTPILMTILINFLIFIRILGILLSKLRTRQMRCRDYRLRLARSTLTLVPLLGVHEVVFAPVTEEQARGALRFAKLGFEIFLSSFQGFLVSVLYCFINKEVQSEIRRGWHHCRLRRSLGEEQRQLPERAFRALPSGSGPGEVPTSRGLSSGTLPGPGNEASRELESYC
Procedure, shortened: as §1

[4] = HEK293, cAMP, 37° C., 0.1% bovine casein and 1.0% human serum albumin, read-out: hGLP-1R Emax, % ± SEM
[5] = cAMP, 37° C., 0.1% bovine casein (no human serum albumin), read-out: hGLP-1R EC50, nM (SEM, n)
[6] = cAMP, 37° C., 0.1% bovine casein (no human serum albumin), geometric mean, read-out: hGCGR EC50, nM (SEM, n)
[7] = cAMP, 37° C., 0.1% bovine casein and 1.0% human serum albumin, geometric mean (SEM, n), read-out: hGCGR EC50, nM (SEM, n)
[8] = HEK293, cAMP, 37° C., 0.1% bovine casein and 1.0% human serum albumin, read-out: hGIPR Emax, % ± SEM
[9] = cAMP, 37° C., 0.1% bovine casein (no human serum albumin), read-out: hGIPR EC50, nM (SEM, n)

CC[C@H](C)[C@H](NC(=O)[C@H](CC(C)C)NC(=O)[C@](C)(Cc1ccc(O)cc1)NC(=O)[C@@H](CCC(=O)O)NC(=O)[C@@H](NC(=O)[C@H](Cc1ccccc1)NC(=O)[C@H](CCC(=O)O)NC(=O)C(C)(C)NC(=O)[C@H](CCC(N)=O)NC(=O)[C@H](C)NC(=O)[C@H](CCCCNC(=O)COCCOCCNC(=O)COCCOCCNC(=O)CC[C@H](NC(=O)CCCCCCCCCCCCC(=O)O)C(=O)O)NC(=O)[C@H](CCCN)NC(=O)[C@H](CC(=O)O)NC(=O)[C@H](CC(C)C)NC(=O)[C@](C)(CC(C)C)NC(=O)[C@@H](NC(=O)C(C)(C)NC(=O)[C@H](Cc1ccncc1)NC(=O)[C@H](CC(=O)O)NC(=O)[C@H](CO)NC(=O)[C@@H](NC(=O)[C@](C)(Cc1ccccc1F)NC(=O)[C@@H](NC(=O)CNC(=O)[C@H](CCC(=O)O)NC(=O)C(C)(C)NC(=O)[C@@H](N)Cc1ccc(O)cc1)[C@@H](C)O)[C@@H](C)O)[C@@H](C)CC)[C@@H](C)CC)C(=O)N[C@@H](CCC(=O)O)C(=O)NCC(=O)NCC(=O)N1CCC[C@H]1C(=O)N[C@@H](CO)C(=O)N[C@@H](CO)C(=O)NCC(=O)N[C@@H](C)C(=O)N1CCC[C@H]1C(=O)N1CCC[C@H]1C(=O)N1CCC[C@H]1C(=O)N[C@@H](CO)C(=O)N[C@@H](CCCCNC(=O)COCCOCCNC(=O)COCCOCCNC(=O)CC[C@H](NC(=O)CCCCCCCCCCCCC(=O)O)C(=O)O)C(N)=O [Example 359]
Emax [1, 4]: 95.1% | EC50 [1, 5]: 1.18 nM | EC50 [2, 6]: > 10100 nM | EC50 [2, 7]: > 9950 nM | Emax [3, 8]: 81% | EC50 [3, 9]: 0.0261 nM

CC[C@H](C)[C@H](NC(=O)[C@H](CC(C)C)NC(=O)[C@](C)(Cc1ccc(O)cc1)NC(=O)[C@@H](CCC(=O)O)NC(=O)[C@@H](NC(=O)[C@H](Cc1ccccc1)NC(=O)[C@H](CCCCNC(=O)COCCOCCNC(=O)CC[C@H](NC(=O)CCCCCCCCCCCCC(=O)O)C(=O)O)NC(=O)C(C)(C)NC(=O)[C@H](CCC(N)=O)NC(=O)[C@H](C)NC(=O)[C@H](CCCCNC(=O)COCCOCCNC(=O)CC[C@H](NC(=O)CCCCCCCCCCCCC(=O)O)C(=O)O)NC(=O)[C@H](CCCN)NC(=O)[C@H](CC(=O)O)NC(=O)[C@H](CC(C)C)NC(=O)[C@](C)(CC(C)C)NC(=O)[C@@H](NC(=O)[C@H](CO)NC(=O)[C@H](Cc1ccncc1)NC(=O)[C@H](CC(=O)O)NC(=O)[C@H](CO)NC(=O)[C@@H](NC(=O)[C@](C)(Cc1ccccc1F)NC(=O)[C@@H](NC(=O)CNC(=O)[C@H](CCC(=O)O)NC(=O)C(C)(C)NC(=O)[C@@H](N)Cc1ccc(O)cc1)[C@@H](C)O)[C@@H](C)O)[C@@H](C)CC)[C@@H](C)CC)C(=O)N[C@@H](CCC(=O)O)C(=O)NCC(=O)NCC(=O)N1CCC[C@H]1C(=O)N[C@@H](CO)C(=O)N[C@@H](CO)C(=O)NCC(=O)N[C@@H](C)C(=O)N1CCC[C@H]1C(=O)N1CCC[C@H]1C(=O)N1CCC[C@H]1C(=O)N[C@@H](CO)C(N)=O [Example 76]
EC50 ([1]; 0.1% bovine casein and 1.0% human serum albumin, 37° C., read-out: hGLP-1R EC50, nM (SEM, n)): 28.9 nM | EC50 ([1]; cAMP, incubated at 37° C., 0.1% bovine casein (no human serum albumin), read-out: hGLP-1R EC50, nM (SEM, n)): 0.527 nM | EC50 ([2]; 0.1% bovine casein and 1.0% human serum albumin, 37° C., geometric mean, read-out: hGCGR EC50, nM (SEM, n)): > 9950 nM | EC50 ([2]; cAMP, incubated at 37° C., 0.1% bovine casein (no human serum albumin), geometric mean, read-out: hGCGR EC50, nM (SEM, n)): > 9950 nM | EC50 ([3]; 0.1% bovine casein and 1.0% human serum albumin, 37° C., read-out: hGIPR EC50, nM (SEM, n)): 1.4 nM | Emax ([3]; HEK293, 0.1% bovine casein and 1.0% human serum albumin, 37° C., read-out: hGIPR Emax, % ± SEM): 89.9 ± 2.11% | EC50 ([3]; cAMP, incubated at 37° C., 0.1% bovine casein (no human serum albumin), read-out: hGIPR EC50, nM (SEM, n)): 0.0205 nM

CC[C@H](C)[C@H](NC(=O)[C@H](CC(C)C)NC(=O)[C@](C)(Cc1ccc(O)cc1)NC(=O)[C@@H](CCC(=O)O)NC(=O)[C@@H](NC(=O)[C@H](Cc1ccccc1)NC(=O)[C@H](CCCCNC(=O)COCCOCCNC(=O)COCCOCCNC(=O)CC[C@H](NC(=O)CCCCCCCCCCCCC(=O)O)C(=O)O)NC(=O)C(C)(C)NC(=O)[C@H](CCC(N)=O)NC(=O)[C@H](C)NC(=O)[C@H](CCCCNC(=O)COCCOCCNC(=O)COCCOCCNC(=O)CC[C@H](NC(=O)CCCCCCCCCCCCC(=O)O)C(=O)O)NC(=O)[C@H](CCCN)NC(=O)[C@H](CC(=O)O)NC(=O)[C@H](CC(C)C)NC(=O)[C@](C)(CC(C)C)NC(=O)[C@@H](NC(=O)C(C)(C)NC(=O)[C@H](Cc1ccncc1)NC(=O)[C@H](CC(=O)O)NC(=O)[C@H](CO)NC(=O)[C@@H](NC(=O)[C@](C)(Cc1ccccc1F)NC(=O)[C@@H](NC(=O)CNC(=O)[C@H](CCC(=O)O)NC(=O)C(C)(C)NC(=O)[C@@H](N)Cc1ccc(O)cc1)[C@@H](C)O)[C@@H](C)O)[C@@H](C)CC)[C@@H](C)CC)C(=O)N[C@@H](CCC(=O)O)C(=O)NCC(=O)NCC(=O)N1CCC[C@H]1C(=O)N[C@@H](CO)C(=O)N[C@@H](CO)C(=O)NCC(=O)N[C@@H](C)C(=O)N1CCC[C@H]1C(=O)N1CCC[C@H]1C(=O)N1CCC[C@H]1C(=O)N[C@@H](CO)C(N)=O [Example 357]
Emax [1, 4]: 92.8% | EC50 [1, 5]: 0.649 nM | EC50 [2, 6]: > 10100 nM | EC50 [2, 7]: > 9950 nM | Emax [3, 8]: 78.2% | EC50 [3, 9]: 0.011 nM

CC[C@H](C)[C@H](NC(=O)[C@H](CC(C)C)NC(=O)[C@](C)(Cc1ccc(O)cc1)NC(=O)[C@H](CCCCNC(=O)COCCOCCNC(=O)COCCOCCNC(=O)CC[C@H](NC(=O)CCCCCCCCCCOc1ccc(C(=O)O)cc1)C(=O)O)NC(=O)[C@@H](NC(=O)[C@H](Cc1ccccc1)NC(=O)[C@H](CCCN)NC(=O)C(C)(C)NC(=O)[C@H](CCC(N)=O)NC(=O)[C@H](C)NC(=O)[C@H](CCC(N)=O)NC(=O)[C@H](CCCN)NC(=O)[C@H](CC(=O)O)NC(=O)[C@H](CC(C)C)NC(=O)[C@](C)(CC(C)C)NC(=O)[C@@H](NC(=O)C(C)(C)NC(=O)[C@H](Cc1ccncc1)NC(=O)[C@H](CC(=O)O)NC(=O)[C@H](CO)NC(=O)[C@@H](NC(=O)[C@](C)(Cc1ccccc1F)NC(=O)[C@@H](NC(=O)CNC(=O)[C@H](CCC(=O)O)NC(=O)C(C)(C)NC(=O)[C@@H](N)Cc1ccc(O)cc1)[C@@H](C)O)[C@@H](C)O)[C@@H](C)CC)[C@@H](C)CC)C(=O)N[C@@H](CCCCNC(=O)COCCOCCNC(=O)COCCOCCNC(=O)CC[C@H](NC(=O)CCCCCCCCCCOc1ccc(C(=O)O)cc1)C(=O)O)C(=O)NCC(=O)NCC(=O)N1CCC[C@H]1C(=O)N[C@@H](CO)C(=O)N[C@@H](CO)C(=O)NCC(=O)N[C@@H](C)C(=O)N1CCC[C@H]1C(=O)N1CCC[C@H]1C(=O)N1CCC[C@H]1C(=O)N[C@@H](CO)C(N)=O [Example 442]
Emax ([1]; HEK293, read-out: hGLP-1R Emax, % ± SEM, cAMP, 37° C., 0.1% bovine casein, arithmetic mean): 113% | EC50 ([1]; hGLP-1R EC50, nM (SEM, n), cAMP, 37° C., 0.1% bovine casein (no human serum albumin)): 0.285 nM | EC50 ([2]; hGCGR EC50, nM (SEM, n), cAMP, 37° C., 0.1% bovine casein (no human serum albumin), geometric mean): > 9950 nM | EC50 ([2]; hGCGR EC50, nM (SEM, n), cAMP, 37° C., 0.1% bovine casein and 1.0% human serum albumin, geometric mean (SEM, n)): > 9950 nM | Emax ([3]; HEK293, read-out: hGIPR Emax, % ± SEM, cAMP, 37° C., 0.1% bovine casein and 1.0% human serum albumin): 92.1% | EC50 ([3]; hGIPR EC50, nM (SEM, n), cAMP, 37° C., 0.1% bovine casein (no human serum albumin)): 0.0129 nM
